Values of other authors in patent US11779012B2, “Compositions and methods for preserving red blood cells and platelets” (RythRx Therapeutics, LLC, priority 2013, dated 2023).
pKd: −log10 of the molar value.

Assays:
[1] = target: pleckstrin homology (PH) domain of Akt (Homo sapiens, UniProt P31749); conditions: binding to PH domain of Akt
[2] = after intravenous administration

pleckstrin homology (PH) domain of Akt, sequence (P31749 5-108 limits assumed): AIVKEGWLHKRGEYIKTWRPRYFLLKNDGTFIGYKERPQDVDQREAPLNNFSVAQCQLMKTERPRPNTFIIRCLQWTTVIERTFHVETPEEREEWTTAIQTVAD

Question: With `CN1N=C(N)c2cn([C@@H]3O[C@H](COP(=O)(O)O)[C@@H](O)[C@H]3O)c3ncnc1c23` [TCNP, ((2R,3S,4R,5R)-5-(3-amino-5-methyl-1,4,5,6,8-pentaazaacenaphthylen-1(5H)-yl)-3,4-dihydroxytetrahydrofuran-2-yl)methyl dihydrogen phosphate] as the molecule, how does the pKd [1] read?
Answer: 6.16

Question: What about the “half-life (retention of TCNP in human RBC)” value [2] of the same molecule?
Answer: 89 h
